Data on 18 compounds can be found in ChEMBL document CHEMBL5120855, “Potent 2,3-dihydrophthalazine-1,4-dione derivatives as dual inhibitors for mono-ADP-ribosyltransferases PARP10 and PARP15” (Eur J Med Chem, 2022).

Series [1] deals with T1, Protein mono-ADP-ribosyltransferase PARP10 (Homo sapiens, UniProt Q53GL7).
T1 sequence (Q53GL7 whole entry): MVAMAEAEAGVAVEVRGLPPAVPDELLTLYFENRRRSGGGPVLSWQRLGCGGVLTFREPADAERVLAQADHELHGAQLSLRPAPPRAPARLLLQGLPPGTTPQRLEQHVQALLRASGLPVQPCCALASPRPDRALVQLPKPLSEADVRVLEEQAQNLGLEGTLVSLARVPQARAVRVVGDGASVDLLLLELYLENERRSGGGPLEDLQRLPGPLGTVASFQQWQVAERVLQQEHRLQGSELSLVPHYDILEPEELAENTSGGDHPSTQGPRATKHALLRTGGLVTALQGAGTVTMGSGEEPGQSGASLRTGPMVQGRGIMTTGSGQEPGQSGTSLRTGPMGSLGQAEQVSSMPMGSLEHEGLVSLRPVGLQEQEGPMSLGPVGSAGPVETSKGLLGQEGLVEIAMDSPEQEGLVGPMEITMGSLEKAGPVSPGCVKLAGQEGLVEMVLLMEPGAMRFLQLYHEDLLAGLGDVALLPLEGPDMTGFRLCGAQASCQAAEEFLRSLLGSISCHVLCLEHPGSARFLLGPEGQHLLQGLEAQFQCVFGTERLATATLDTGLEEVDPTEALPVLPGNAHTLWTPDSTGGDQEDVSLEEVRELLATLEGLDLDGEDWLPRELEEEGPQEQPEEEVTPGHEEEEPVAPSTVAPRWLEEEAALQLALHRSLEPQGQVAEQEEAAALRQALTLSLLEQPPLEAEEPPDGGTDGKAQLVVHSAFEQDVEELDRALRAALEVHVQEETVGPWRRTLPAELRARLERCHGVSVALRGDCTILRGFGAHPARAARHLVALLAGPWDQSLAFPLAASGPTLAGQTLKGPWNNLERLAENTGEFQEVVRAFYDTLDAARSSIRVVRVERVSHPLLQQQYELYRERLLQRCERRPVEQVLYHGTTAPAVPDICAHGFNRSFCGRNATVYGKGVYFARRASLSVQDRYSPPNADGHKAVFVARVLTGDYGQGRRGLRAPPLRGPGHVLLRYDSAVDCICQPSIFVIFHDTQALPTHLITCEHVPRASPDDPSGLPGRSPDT
The series can be described thus: Inhibition of human PARP-10 using NAD+ as substrate incubated for 10 mins by fluorescence based analysis.

Series [2] addresses T2, Protein mono-ADP-ribosyltransferase PARP15 (Homo sapiens, UniProt Q460N3).
T2 sequence (Q460N3 whole entry): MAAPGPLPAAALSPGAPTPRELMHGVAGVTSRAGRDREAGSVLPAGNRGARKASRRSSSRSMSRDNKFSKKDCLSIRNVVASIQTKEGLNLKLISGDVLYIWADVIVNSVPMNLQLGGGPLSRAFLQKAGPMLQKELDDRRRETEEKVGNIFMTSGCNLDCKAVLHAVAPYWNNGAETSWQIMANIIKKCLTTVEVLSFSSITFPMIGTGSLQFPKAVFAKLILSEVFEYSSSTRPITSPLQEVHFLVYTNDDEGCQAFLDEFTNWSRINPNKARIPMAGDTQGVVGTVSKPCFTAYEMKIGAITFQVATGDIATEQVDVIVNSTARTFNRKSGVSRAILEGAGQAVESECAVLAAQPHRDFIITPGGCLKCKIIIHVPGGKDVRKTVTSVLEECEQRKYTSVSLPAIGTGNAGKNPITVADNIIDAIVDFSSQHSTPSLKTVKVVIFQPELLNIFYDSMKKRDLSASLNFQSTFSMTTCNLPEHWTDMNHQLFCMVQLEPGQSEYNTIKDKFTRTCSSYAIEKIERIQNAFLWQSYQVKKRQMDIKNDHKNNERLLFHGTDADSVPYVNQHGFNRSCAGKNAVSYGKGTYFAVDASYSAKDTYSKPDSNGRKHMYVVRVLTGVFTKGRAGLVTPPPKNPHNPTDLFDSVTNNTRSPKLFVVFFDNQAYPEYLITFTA
The series is described as follows: Inhibition of human N-terminal 6His-tagged PARP15 (460 to 656 residues) expressed in Escherichia coli Rosetta2 (DE3) cells using NAD+ as substrate incubated for 10 mins by fluorescence based analysis.

Series [3] has as its target Protein mono-ADP-ribosyltransferase PARP14 (Homo sapiens, UniProt Q460N5). The series is described as follows: Inhibition of human PARP14 using NAD+ as substrate incubated for 10 mins by fluorescence based analysis.
Series [4] concerns the target Poly [ADP-ribose] polymerase 2 (Homo sapiens, UniProt Q9UGN5). The series is described as follows: Inhibition of human PARP2 using NAD+ as substrate incubated for 10 mins by fluorescence based analysis.
Series [5] has as its target T3, Poly [ADP-ribose] polymerase tankyrase-2 (Homo sapiens, UniProt Q9H2K2).
T3 sequence (Q9H2K2 whole entry): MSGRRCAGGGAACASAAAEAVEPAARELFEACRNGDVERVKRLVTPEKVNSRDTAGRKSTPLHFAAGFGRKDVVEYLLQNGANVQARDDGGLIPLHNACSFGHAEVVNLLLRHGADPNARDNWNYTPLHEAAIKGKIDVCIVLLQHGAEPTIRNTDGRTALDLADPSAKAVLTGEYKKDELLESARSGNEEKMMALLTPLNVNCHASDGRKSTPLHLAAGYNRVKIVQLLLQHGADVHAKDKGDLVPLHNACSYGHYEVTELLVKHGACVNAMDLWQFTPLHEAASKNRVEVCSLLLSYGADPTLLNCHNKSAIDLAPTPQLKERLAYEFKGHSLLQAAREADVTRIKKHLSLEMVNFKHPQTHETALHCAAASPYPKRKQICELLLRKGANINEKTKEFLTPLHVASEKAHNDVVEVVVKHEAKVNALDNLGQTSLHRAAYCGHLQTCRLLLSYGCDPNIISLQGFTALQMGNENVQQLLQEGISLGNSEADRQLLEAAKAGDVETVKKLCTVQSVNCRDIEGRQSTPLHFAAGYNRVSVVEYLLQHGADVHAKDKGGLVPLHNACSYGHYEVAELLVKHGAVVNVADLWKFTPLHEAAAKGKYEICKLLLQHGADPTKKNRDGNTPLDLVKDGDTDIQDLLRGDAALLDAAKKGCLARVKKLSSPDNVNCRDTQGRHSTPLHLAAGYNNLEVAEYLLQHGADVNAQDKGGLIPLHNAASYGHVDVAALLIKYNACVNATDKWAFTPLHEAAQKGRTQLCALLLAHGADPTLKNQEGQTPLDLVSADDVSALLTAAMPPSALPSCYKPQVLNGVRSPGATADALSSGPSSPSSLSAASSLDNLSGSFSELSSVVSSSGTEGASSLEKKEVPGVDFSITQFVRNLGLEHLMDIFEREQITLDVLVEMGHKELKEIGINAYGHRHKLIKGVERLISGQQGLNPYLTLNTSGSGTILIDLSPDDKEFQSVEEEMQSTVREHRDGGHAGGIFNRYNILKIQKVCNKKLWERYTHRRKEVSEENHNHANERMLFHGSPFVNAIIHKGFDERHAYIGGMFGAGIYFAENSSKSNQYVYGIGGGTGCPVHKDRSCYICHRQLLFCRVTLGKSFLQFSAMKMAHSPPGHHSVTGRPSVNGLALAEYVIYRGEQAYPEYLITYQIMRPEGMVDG
The series is described as follows: Inhibition of human N-terminal 6His-tagged TNKS2 (1030 to 1317 residues) expressed in Escherichia coli Rosetta2 (DE3) cells using NAD+ as substrate incubated for 10 mins by fluorescence based analysis.

For another series, the system named is HEK-293T. The series is described as follows: Cytotoxicity against HEK293T cells assessed as reduction in cell viability at 10 uM measured after 24 hrs by WST-1 assay. The note with it: human. Type of series: toxicity, cell-based.
The subject of a further series is HeLa. The series can be described thus: Rescue of cell viability in human HeLa cells expressing wild type PARP10 at upto 10 uM incubated for 10 to 12 days by methylene blue dye based colony formation assay. Type of series: functional.

Poly [ADP-ribose] polymerase 2, sequence (Q9UGN5 whole entry): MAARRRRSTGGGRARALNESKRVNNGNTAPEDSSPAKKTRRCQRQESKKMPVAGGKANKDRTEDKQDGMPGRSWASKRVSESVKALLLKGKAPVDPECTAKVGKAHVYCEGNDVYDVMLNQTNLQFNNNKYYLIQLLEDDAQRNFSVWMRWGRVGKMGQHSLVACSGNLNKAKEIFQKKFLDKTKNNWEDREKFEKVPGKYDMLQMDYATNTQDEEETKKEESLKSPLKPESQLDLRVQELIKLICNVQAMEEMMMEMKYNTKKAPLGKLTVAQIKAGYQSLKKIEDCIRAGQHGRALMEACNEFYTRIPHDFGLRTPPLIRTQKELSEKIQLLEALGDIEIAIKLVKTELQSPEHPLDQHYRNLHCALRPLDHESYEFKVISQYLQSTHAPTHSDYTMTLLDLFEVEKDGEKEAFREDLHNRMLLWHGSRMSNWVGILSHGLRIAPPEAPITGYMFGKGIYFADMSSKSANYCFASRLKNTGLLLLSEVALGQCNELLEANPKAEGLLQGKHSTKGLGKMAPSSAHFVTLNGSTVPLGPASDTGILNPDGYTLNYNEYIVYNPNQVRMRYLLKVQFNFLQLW
Protein mono-ADP-ribosyltransferase PARP14, sequence (Q460N5 whole entry): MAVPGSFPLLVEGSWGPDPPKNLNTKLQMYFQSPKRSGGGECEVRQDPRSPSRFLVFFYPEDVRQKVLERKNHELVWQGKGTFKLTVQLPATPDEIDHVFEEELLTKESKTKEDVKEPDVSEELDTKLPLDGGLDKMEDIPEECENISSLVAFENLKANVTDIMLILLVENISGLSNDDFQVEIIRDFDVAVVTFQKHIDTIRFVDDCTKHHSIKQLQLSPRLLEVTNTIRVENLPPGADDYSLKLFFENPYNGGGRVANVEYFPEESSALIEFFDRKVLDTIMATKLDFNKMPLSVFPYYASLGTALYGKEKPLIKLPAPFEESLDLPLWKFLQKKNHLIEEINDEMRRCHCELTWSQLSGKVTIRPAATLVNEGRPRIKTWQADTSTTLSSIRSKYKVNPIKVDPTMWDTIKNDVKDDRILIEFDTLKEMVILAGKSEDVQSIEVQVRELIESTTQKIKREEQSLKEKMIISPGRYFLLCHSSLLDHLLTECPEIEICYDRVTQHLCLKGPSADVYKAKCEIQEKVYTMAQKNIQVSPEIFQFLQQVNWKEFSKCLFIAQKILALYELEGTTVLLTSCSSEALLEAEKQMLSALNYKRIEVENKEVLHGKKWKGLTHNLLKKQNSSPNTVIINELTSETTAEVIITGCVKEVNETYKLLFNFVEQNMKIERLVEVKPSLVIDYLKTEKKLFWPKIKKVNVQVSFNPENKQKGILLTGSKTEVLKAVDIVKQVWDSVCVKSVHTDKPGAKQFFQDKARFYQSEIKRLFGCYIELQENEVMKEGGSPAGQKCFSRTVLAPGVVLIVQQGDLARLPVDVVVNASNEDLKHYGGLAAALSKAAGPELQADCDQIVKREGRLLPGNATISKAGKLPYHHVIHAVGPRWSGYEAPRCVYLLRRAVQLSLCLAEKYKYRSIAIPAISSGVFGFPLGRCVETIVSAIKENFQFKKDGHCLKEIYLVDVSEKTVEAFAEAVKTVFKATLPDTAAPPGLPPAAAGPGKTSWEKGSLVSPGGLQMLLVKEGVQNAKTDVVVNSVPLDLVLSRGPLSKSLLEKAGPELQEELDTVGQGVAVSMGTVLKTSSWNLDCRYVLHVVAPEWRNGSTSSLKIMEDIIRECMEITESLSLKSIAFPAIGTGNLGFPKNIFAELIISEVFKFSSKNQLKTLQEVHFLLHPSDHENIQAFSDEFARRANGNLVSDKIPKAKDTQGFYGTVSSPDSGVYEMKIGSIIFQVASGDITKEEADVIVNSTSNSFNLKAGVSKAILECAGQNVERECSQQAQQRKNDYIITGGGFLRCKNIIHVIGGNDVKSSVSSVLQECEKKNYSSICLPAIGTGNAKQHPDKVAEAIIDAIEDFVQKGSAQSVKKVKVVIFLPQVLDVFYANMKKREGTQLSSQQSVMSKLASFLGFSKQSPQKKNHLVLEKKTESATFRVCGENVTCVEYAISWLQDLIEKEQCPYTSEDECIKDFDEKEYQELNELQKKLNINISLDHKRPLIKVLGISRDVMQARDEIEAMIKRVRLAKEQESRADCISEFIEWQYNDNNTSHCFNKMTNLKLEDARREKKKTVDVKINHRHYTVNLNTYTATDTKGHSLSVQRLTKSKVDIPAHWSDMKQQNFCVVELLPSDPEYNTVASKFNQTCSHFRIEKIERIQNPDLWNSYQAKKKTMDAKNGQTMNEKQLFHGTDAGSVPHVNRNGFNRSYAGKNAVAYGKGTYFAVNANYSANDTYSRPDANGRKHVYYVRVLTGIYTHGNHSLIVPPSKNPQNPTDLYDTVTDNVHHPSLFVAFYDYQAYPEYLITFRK

Turning to `O=c1[nH][nH]c(=O)c2cc(OCc3cccc(Br)c3)ccc12`, the IC50 is 1.2 µM in series [1]; 1.3 µM in series [2]; more than 100 µM in series [3]; more than 100 µM in series [4]; more than 100 µM in series [5]. The Activity result in the series with HEK-293T is given as “Non-Toxic”.
As to `NC(=O)c1ccc(OCC2CCCCC2)cc1OCc1ccccn1`, the 50% inhibitory concentration (IC50) in series [1] is more than 10 µM; in series [2] it was more than 10 µM; in series [3] it was more than 10 µM; in series [4] it was more than 100 µM; in series [5], more than 100 µM. In addition, the Activity result in the series with HEK-293T is given as “Non-Toxic”.
Turning to `COc1ccccc1COc1ccc(C(N)=O)c(F)c1`, the concentration for half-maximal inhibition (IC50) is 8.2 µM in series [1]; more than 10 µM in series [2]; 6.8 µM in series [3]; more than 100 µM in series [4]; more than 100 µM in series [5]. The Activity entry in the series on HEK-293T is reported as “Non-Toxic”.
For the compound `COc1cc(OCc2cccc3ccccc23)ccc1C(N)=O`, the IC50 in series [1] was 5 µM; in series [2], 2.2 µM; in series [3] it was more than 100 µM; in series [4], more than 100 µM; in series [5], more than 100 µM. Besides, the Activity result in the series on HEK-293T was “Non-Toxic”.
Consider `NC(=O)c1ccc(OCC2CCCCC2)cc1`, for which the IC50 in series [1] was 1.7 µM; in series [2] it was 3.6 µM; in series [3], more than 100 µM; in series [4], more than 100 µM; in series [5], more than 100 µM. In addition, the Activity entry in the series on HEK-293T is listed as “Non-Toxic”.
Turning to `NC(=O)c1ccc(OCC2CCC2)cc1OCCN1CCNCC1`, the IC50 in series [1] is more than 10 µM; in series [2] it was more than 10 µM; in series [3] it was more than 10 µM; in series [4] it was more than 100 µM; in series [5], more than 100 µM. Besides, the Activity entry with HEK-293T is “Non-Toxic”.
As for `O=c1[nH][nH]c(=O)c2cc(OCC3CC3)ccc12`, the IC50 in series [1] is 0.31 µM; in series [2], 1.2 µM; in series [3], more than 10 µM; in series [4] it was more than 100 µM; in series [5], more than 100 µM. The Activity result with HEK-293T was “Non-Toxic”.
As to `O=c1[nH][nH]c(=O)c2cc(OCC3CCCCC3)ccc12`, the IC50 in series [1] came to 0.14 µM; in series [2], 0.4 µM. Moreover, in the series with HEK-293T, the Activity result was “Non-Toxic”. Also, the EC50 with HeLa was found to be 1.5 µM.
For the compound `NC(=O)c1ccc(OCC2CCC2)cc1F`, the IC50 was 0.62 µM in series [1]; 6 µM in series [2]; more than 10 µM in series [3]; more than 100 µM in series [4]; more than 100 µM in series [5]. Moreover, the Activity result in the series on HEK-293T is on record as “Non-Toxic”.
As to `NC(=O)c1ccc(OCc2cncs2)cc1`, the IC50 is 1.6 µM in series [1]; 2.4 µM in series [2]; more than 10 µM in series [3]; more than 100 µM in series [4]; more than 100 µM in series [5]. Also, the Activity entry with HEK-293T is on record as “Non-Toxic”.
As to `COc1cc(OCC2CCCCC2)ccc1C(N)=O`, the IC50 in series [1] was 4.4 µM; in series [2], 5 µM; in series [3], more than 100 µM; in series [4], more than 100 µM; in series [5], more than 100 µM. Moreover, in the series with HEK-293T, the Activity entry is reported as “Non-Toxic”.
As to `NC(=O)c1ccc(OCc2cccc(Br)c2)cc1F`, the IC50 in series [1] was 1.5 µM; in series [2], 0.6 µM; in series [3], more than 10 µM; in series [4] it was more than 100 µM; in series [5] it was more than 100 µM. Also, in the series on HEK-293T, the Activity result is reported as “Non-Toxic”.
For `O=c1[nH][nH]c(=O)c2cc(OCC3CCC3)ccc12`, the IC50 in series [1] is 0.16 µM; in series [2], 0.37 µM; in series [3], more than 10 µM; in series [4] it was more than 100 µM; in series [5], more than 100 µM. Besides, in the series with HEK-293T, the Activity result is recorded as “Non-Toxic”.
`O=c1[nH][nH]c(=O)c2cc(OCC3CCCC3)ccc12`: the IC50 in series [1] is 0.13 µM; in series [2], 0.32 µM; in series [3] it was more than 10 µM; in series [4], more than 100 µM; in series [5] it was more than 100 µM. Besides, in the series with HEK-293T, the Activity entry was “Non-Toxic”.
For `COc1cc(OCc2cccc(Br)c2)ccc1C(N)=O`, the IC50 in series [1] is more than 10 µM; in series [2] it was 2.5 µM; in series [3], more than 100 µM; in series [4] it was more than 100 µM; in series [5] it was more than 100 µM. Also, in the series on HEK-293T, the Activity entry is given as “Non-Toxic”.
Turning to `NC(=O)c1ccc(OCC2CC2)cc1`, the IC50 was 0.6 µM in series [1]; 4.8 µM in series [2]; more than 10 µM in series [3]; 53 µM in series [4]; more than 100 µM in series [5]. Also, in the series on HEK-293T, the Activity entry was “Non-Toxic”.
On to `NC(=O)c1ccc(OCC2CCCCC2)cc1F`, for which the IC50 is 0.96 µM in series [1]; more than 10 µM in series [2]; more than 10 µM in series [3]; more than 100 µM in series [4]; more than 100 µM in series [5]. Besides, the Activity result in the series with HEK-293T is reported as “Non-Toxic”.
Take `NC(=O)c1ccc(OCC2CCCC2)cc1`: the IC50 is 0.59 µM in series [1]; 3.8 µM in series [2]; more than 10 µM in series [3]; more than 100 µM in series [4]; more than 100 µM in series [5]. Also, in the series on HEK-293T, the Activity entry is reported as “Non-Toxic”.

By IC50 is commonly meant the midpoint of a concentration-inhibition curve. Lower therefore signals higher potency. By EC50 is commonly meant the concentration needed to bring the measured effect to its halfway point. Low readings indicate higher potency in that assay, high ones lower potency in that assay.
